Measurements: ChEMBL document CHEMBL3885861, “Open TG-GATES”

Organism: Rattus norvegicus
Assay: Open TG-GATES - Regimen: Daily Repeat
Assay type: toxicity, organism-based, Sprague-Dawley
Design: regimen Daily Repeat, gender Male, age 6 weeks
Conditions: in vivo, po, 0 mg/kg, route gavage, dose level Control; for KIDNEY_L / KIDNEY_R / KIDNEY_TOTAL: tissue Kidney; for ALP / ALT / AST / BUN / CRE / Ca / Cl / DBIL / GLC / IP / K / LDH / Na / PL / RALB / TBIL / TC / TG / TP / gamma-GTP: tissue Plasma

O=C1CN(/N=C/c2ccc(-c3ccc([N+](=O)[O-])cc3)o2)C(O)=N1 [DANTROLENE]
TERMINAL_BW (72 h, time 3 day): 235.4 g | APTT (72 h, tissue Blood, time 3 day): 16.8 s | Bas (72 h, tissue Blood, time 3 day): 0% | Eos (72 h, tissue Blood, time 3 day): 1% | Fbg (72 h, tissue Blood, time 3 day): 224.8 mg/dL | Hb (72 h, tissue Blood, time 3 day): 13.3 g/dL | Lym (72 h, tissue Blood, time 3 day): 77% | MCH (72 h, tissue Blood, time 3 day): 21.6 pg | MCHC (72 h, tissue Blood, time 3 day): 33.6% | MCV (72 h, tissue Blood, time 3 day): 64.2 fL | Mono (72 h, tissue Blood, time 3 day): 6.6% | Plat (72 h, tissue Blood, time 3 day): 128.8 x10_4/uL | RBC (72 h, tissue Blood, time 3 day): 618.2 x10_4/ul | Ret (72 h, tissue Blood, time 3 day): 6.6% | WBC (72 h, tissue Blood, time 3 day): 113.2 x10_2/uL | KIDNEY_L (72 h, time 3 day): 1.1 g | KIDNEY_R (72 h, time 3 day): 1.1 g | KIDNEY_TOTAL (72 h, time 3 day): 2.2 g | ALP (72 h, time 3 day): 842.8 IU/L | ALT (72 h, time 3 day): 34 IU/L | AST (72 h, time 3 day): 62.8 IU/L | BUN (72 h, time 3 day): 19.2 mg/dL | CRE (72 h, time 3 day): 0.6 mg/dL | Ca (72 h, time 3 day): 10.9 mg/dL | Cl (72 h, time 3 day): 104 meq/L | DBIL (72 h, time 3 day): 0.004 mg/dL | GLC (72 h, time 3 day): 200.6 mg/dL | IP (72 h, time 3 day): 7.5 mg/dL | K (72 h, time 3 day): 4.7 meq/L | LDH (72 h, time 3 day): 85 IU/L | Na (72 h, time 3 day): 140.2 meq/L | PL (72 h, time 3 day): 158.6 mg/dL | RALB (72 h, time 3 day): 3.8 g/dL | TBIL (72 h, time 3 day): 0.3 mg/dL | TC (72 h, time 3 day): 78.4 mg/dL | TG (72 h, time 3 day): 114.8 mg/dL | TP (72 h, time 3 day): 5.8 g/dL | gamma-GTP (72 h, time 3 day): 1 IU/L | TERMINAL_BW ([…], time 7 day): 269.1 g | TERMINAL_BW ([…], time 14 day): 300.9 g | TERMINAL_BW ([…], time 28 day): 379.1 g | APTT ([…], tissue Blood, time 7 day): 16.9 s | Bas ([…], tissue Blood, time 7 day): 0% | Eos ([…], tissue Blood, time 7 day): 1% | Fbg ([…], tissue Blood, time 7 day): 213 mg/dL | Hb ([…], tissue Blood, time 7 day): 14 g/dL | Lym ([…], tissue Blood, time 7 day): 78.2% | MCH ([…], tissue Blood, time 7 day): 21 pg | MCHC ([…], tissue Blood, time 7 day): 33.6% | MCV ([…], tissue Blood, time 7 day): 62.7 fL | Mono ([…], tissue Blood, time 7 day): 7.4% | Plat ([…], tissue Blood, time 7 day): 126.8 x10_4/uL | RBC ([…], tissue Blood, time 7 day): 666.4 x10_4/ul | Ret ([…], tissue Blood, time 7 day): 5.1% | WBC ([…], tissue Blood, time 7 day): 106.4 x10_2/uL | APTT ([…], tissue Blood, time 14 day): 17.6 s | Bas ([…], tissue Blood, time 14 day): 0% | Eos ([…], tissue Blood, time 14 day): 0.4% | Fbg ([…], tissue Blood, time 14 day): 201.8 mg/dL | Hb ([…], tissue Blood, time 14 day): 14.8 g/dL | Lym ([…], tissue Blood, time 14 day): 82.6% | MCH ([…], tissue Blood, time 14 day): 20.3 pg | MCHC ([…], tissue Blood, time 14 day): 33.3% | MCV ([…], tissue Blood, time 14 day): 61.1 fL | Mono ([…], tissue Blood, time 14 day): 3.8% | Plat ([…], tissue Blood, time 14 day): 112.9 x10_4/uL | RBC ([…], tissue Blood, time 14 day): 728.6 x10_4/ul | Ret ([…], tissue Blood, time 14 day): 3.7% | WBC ([…], tissue Blood, time 14 day): 110.6 x10_2/uL | APTT ([…], tissue Blood, time 28 day): 18.6 s | Bas ([…], tissue Blood, time 28 day): 0% | Eos ([…], tissue Blood, time 28 day): 1.4% | Fbg ([…], tissue Blood, time 28 day): 217.6 mg/dL | Hb ([…], tissue Blood, time 28 day): 15.6 g/dL | Ht ([…], tissue Blood, time 28 day): 46.2% | Lym ([…], tissue Blood, time 28 day): 84% | MCH ([…], tissue Blood, time 28 day): 19.5 pg | MCHC ([…], tissue Blood, time 28 day): 33.9% | MCV ([…], tissue Blood, time 28 day): 57.5 fL | Mono ([…], tissue Blood, time 28 day): 4.6% | Plat ([…], tissue Blood, time 28 day): 117 x10_4/uL | RBC ([…], tissue Blood, time 28 day): 803.2 x10_4/ul | Ret ([…], tissue Blood, time 28 day): 2.8% | WBC ([…], tissue Blood, time 28 day): 103.3 x10_2/uL | KIDNEY_L ([…], time 7 day): 1.2 g | KIDNEY_R ([…], time 7 day): 1.2 g | KIDNEY_TOTAL ([…], time 7 day): 2.4 g | KIDNEY_L ([…], time 14 day): 1.2 g | KIDNEY_R ([…], time 14 day): 1.3 g | KIDNEY_TOTAL ([…], time 14 day): 2.5 g | KIDNEY_L ([…], time 28 day): 1.4 g | KIDNEY_R ([…], time 28 day): 1.3 g | KIDNEY_TOTAL ([…], time 28 day): 2.7 g | ALP ([…], time 7 day): 931.4 IU/L | ALT ([…], time 7 day): 33.4 IU/L | AST ([…], time 7 day): 64.2 IU/L | BUN ([…], time 7 day): 18.2 mg/dL | CRE ([…], time 7 day): 0.5 mg/dL | Ca ([…], time 7 day): 10.7 mg/dL | Cl ([…], time 7 day): 106.8 meq/L | DBIL ([…], time 7 day): 0.002 mg/dL | GLC ([…], time 7 day): 204 mg/dL | IP ([…], time 7 day): 7.2 mg/dL | K ([…], time 7 day): 5.1 meq/L | LDH ([…], time 7 day): 76.6 IU/L | Na ([…], time 7 day): 138.6 meq/L | PL ([…], time 7 day): 164.2 mg/dL | RALB ([…], time 7 day): 3.8 g/dL | TBIL ([…], time 7 day): 0.3 mg/dL | TC ([…], time 7 day): 79.6 mg/dL | TG ([…], time 7 day): 138.8 mg/dL | TP ([…], time 7 day): 5.8 g/dL | gamma-GTP ([…], time 7 day): 1.4 IU/L | ALP ([…], time 14 day): 833.2 IU/L | ALT ([…], time 14 day): 31.4 IU/L | AST ([…], time 14 day): 61.6 IU/L | BUN ([…], time 14 day): 17.8 mg/dL | CRE ([…], time 14 day): 0.6 mg/dL | Ca ([…], time 14 day): 10.5 mg/dL | Cl ([…], time 14 day): 105.4 meq/L | DBIL ([…], time 14 day): 0.012 mg/dL | GLC ([…], time 14 day): 203.6 mg/dL | IP ([…], time 14 day): 7.5 mg/dL | K ([…], time 14 day): 4.5 meq/L | LDH ([…], time 14 day): 82.6 IU/L | Na ([…], time 14 day): 141.8 meq/L | PL ([…], time 14 day): 139.2 mg/dL | RALB ([…], time 14 day): 3.9 g/dL | TBIL ([…], time 14 day): 0.3 mg/dL | TC ([…], time 14 day): 62 mg/dL | TG ([…], time 14 day): 85.8 mg/dL | TP ([…], time 14 day): 5.9 g/dL | gamma-GTP ([…], time 14 day): 0.8 IU/L | ALP ([…], time 28 day): 628.6 IU/L | ALT ([…], time 28 day): 30.6 IU/L | AST ([…], time 28 day): 50.8 IU/L | BUN ([…], time 28 day): 18 mg/dL | CRE ([…], time 28 day): 0.6 mg/dL | Ca ([…], time 28 day): 10.3 mg/dL | Cl ([…], time 28 day): 106.8 meq/L | DBIL ([…], time 28 day): 0.016 mg/dL | GLC ([…], time 28 day): 187.8 mg/dL | IP ([…], time 28 day): 6.5 mg/dL | K ([…], time 28 day): 4.4 meq/L | LDH ([…], time 28 day): 83.2 IU/L | Na ([…], time 28 day): 140 meq/L | PL ([…], time 28 day): 143.4 mg/dL | RALB ([…], time 28 day): 3.8 g/dL | TBIL ([…], time 28 day): 0.3 mg/dL | TC ([…], time 28 day): 69.6 mg/dL | TG ([…], time 28 day): 127.2 mg/dL | TP ([…], time 28 day): 6.1 g/dL
